According to publication PMC5199130 (Molecular Systems Biology, 2016):

B1: Lem14 (Lpg1851) 1–220, purified and crystallised (natural protein)
chain: MSFELVAYEKLKGSIRESIITLIKSHNEKAKIIEDKLEYSVKEVSRERQPQVLVLLKTIELLDNSSKEPEDKARVLNALAYYIRDQIAATYKYTSPDNSDFYKSLTISLDLNKDNNPNREDLADMYSALEKFLRSHVYKNSDPRKGYLDKQPFAIKHYSVVDDILELSDRVHKLRHEIIIAARDLHLLQQKPKSSQGGLFSVPSGKEKVTDTHEVANHRL

Key:
MavQ = molecular target: T1, MavQ (Legionella pneumophila, UniProt Q5ZRA8)
T1 construct: gene lpg2975

[1] = molecular target: RavJ (Lpg0944) 1–230, purified (Legionella pneumophila str. Philadelphia-1) (UniProt Q5ZWY9); assay: crystal structure
crystal structure = molecular target: the molecule itself; assay: crystal structure

| Molecule | ADP-Glo kinase assay (MavQ) | other results |
| --- | --- | --- |
| Nc1ncnc2c1ncn2[C@@H]1O[C@H](COP(=O)(O)OP(=O)(O)OP(=O)(O)O)[C@@H](O)[C@H]1O [ATP] | wild‐type MavQ, but not the D147A mutant, possesses robust ATP hydrolysis activity |  |
| CCCCCCCC(=O)OC[C@H](COP(=O)(O)O[C@@H]1[C@H](O)[C@H](O)[C@@H](O)[C@H](O)[C@H]1O)OC(=O)CCCCCCC [PI diC8] | addition of phosphoinositide to this reaction increased the activity of the wild‐type MavQ fivefold |  |
| LegL1 (Lpg0945) 1–296, purified (from UniProt Q5ZWY8 1-296) (natural protein) |  | stoichiometry N [1]: 1 |
| B1 |  | stoichiometry N (crystal structure): 2 |
